Assay results from ChEMBL document CHEMBL4732190, “Identification of Potent and Long-Acting Single-Chain Peptide Mimetics of Human Relaxin-2 for Cardiovascular Diseases” (J Med Chem, 2021).
Where a SMILES comes first, the peptide text is derived from it.

Experiments:
[1] = molecular target: T1, Relaxin receptor 1 (Homo sapiens, UniProt Q9HBX9); assay: Agonist activity at RXFP1 endogenously expressed in human OVCAR-5 cells assessed as increase in IBMX-induced cAMP accumulation pretreated with IBMX for 40 mins followed by compound addition and measured after 30 mins by HTRF assay; type: functional, cell-based
T1 sequence (Q9HBX9 whole entry): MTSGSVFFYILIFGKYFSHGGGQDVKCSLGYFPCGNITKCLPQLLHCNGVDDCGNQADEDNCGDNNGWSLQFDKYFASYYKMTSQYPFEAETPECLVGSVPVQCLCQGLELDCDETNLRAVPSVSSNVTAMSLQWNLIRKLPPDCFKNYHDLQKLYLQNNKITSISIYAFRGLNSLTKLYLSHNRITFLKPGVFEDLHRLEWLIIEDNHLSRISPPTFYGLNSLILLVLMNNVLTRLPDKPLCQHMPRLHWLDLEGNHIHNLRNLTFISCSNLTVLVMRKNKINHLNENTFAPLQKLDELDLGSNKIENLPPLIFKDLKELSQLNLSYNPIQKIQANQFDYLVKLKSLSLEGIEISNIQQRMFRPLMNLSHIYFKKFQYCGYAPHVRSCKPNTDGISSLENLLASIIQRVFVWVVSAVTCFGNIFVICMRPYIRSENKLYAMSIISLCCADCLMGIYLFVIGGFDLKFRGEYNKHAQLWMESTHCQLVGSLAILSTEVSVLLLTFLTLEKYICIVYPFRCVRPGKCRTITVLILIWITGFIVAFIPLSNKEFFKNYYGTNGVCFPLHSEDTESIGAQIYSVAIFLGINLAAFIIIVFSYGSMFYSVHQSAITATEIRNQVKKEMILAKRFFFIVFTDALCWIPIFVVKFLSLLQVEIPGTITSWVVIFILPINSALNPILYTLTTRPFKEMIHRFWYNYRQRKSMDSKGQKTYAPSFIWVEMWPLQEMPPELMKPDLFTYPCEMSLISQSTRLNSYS

[2] = molecular target: T2, Relaxin receptor 1 (Homo sapiens) (UniProt Q9HBX9); assay: Agonist activity at RXFP1 endogenously expressed in human OVCAR-5 cells assessed as increase in IBMX-induced cAMP accumulation pretreated with IBMX for 40 mins followed by compound addition and measured after 30 mins by HTRF assay relative to relaxin; type: functional, cell-based; conditions: filed as agonist
T2 sequence (whole entry): T1 sequence (Q9HBX9 whole entry)

Row | EC50 [1] [nM] | Emax [2] [%] | SMILES
1 | 230 | 101 | CC[C@H](C)[C@H](NC(=O)[C@H](CCC(N)=O)NC(=O)[C@H](C)NC(=O)[C@H](CCCNC(=N)N)NC(=O)[C@@H](NC(=O)[C@H](CC(C)C)NC(=O)[C@H](CCC(=O)O)NC(=O)[C@H](CCCNC(=N)N)NC(=O)CNC(=O)[C@H](CO)NC(=O)[C@H](CC(C)C)NC(=O)[C@H](CCCCN)NC(=O)[C@@H](NC(=O)[C@@H](NC(=O)[C@H](CCC(=O)O)NC(=O)[C@H](CCC(=O)O)NC(C)=O)C(C)C)[C@@H](C)CC)C(C)C)C(=O)NC[C@H](C)C(=O)N[C@H](C(=O)N[C@@H](CCC(=O)O)C(=O)NCC(=O)N[C@@H](CCSC)C(=O)N[C@@H](CO)C(=O)N[C@@H](CCCCN)C(=O)N[C@@H](Cc1c[nH]c2ccccc12)C(=O)N[C@@H](CO)C(=O)N[C@@H](CCCCN)C(=O)N[C@@H](CCCNC(=N)N)C(=O)N[C@@H](CCCCN)C(=O)N[C@@H](CCCCN)C(N)=O)[C@@H](C)CC (HELM PEPTIDE1{[ac].E.E.V.I.K.L.S.G.R.E.L.V.R.A.Q.I.[C[C@@H](CN[*:1])C(=O)[*:2]].I.E.G.M.S.K.W.S.K.R.K.K.[am]}$$$$V2.0)
2 | 143 | 94 | CC[C@H](C)[C@H](NC(=O)[C@H](CCC(N)=O)NC(=O)[C@H](C)NC(=O)[C@H](CCCNC(=N)N)NC(=O)[C@@H](NC(=O)[C@H](CC(C)C)NC(=O)[C@H](CCC(=O)O)NC(=O)[C@H](CCCNC(=N)N)NC(=O)CNC(=O)[C@H](CO)NC(=O)[C@H](CC(C)C)NC(=O)[C@H](CCCCN)NC(=O)[C@@H](NC(=O)[C@@H](NC(=O)[C@H](CCC(=O)O)NC(=O)[C@H](CCC(=O)O)NC(C)=O)C(C)C)[C@@H](C)CC)C(C)C)C(=O)NC[C@H](C)C(=O)N[C@H](C(=O)N[C@@H](CO)C(=O)NCC(=O)N[C@@H](CCSC)C(=O)N[C@@H](CO)C(=O)N[C@H](C(=O)N[C@@H](Cc1c[nH]c2ccccc12)C(=O)N[C@@H](CO)C(=O)N[C@@H](CCCCN)C(=O)N[C@@H](CCCNC(=N)N)C(=O)N[C@@H](CCCCN)C(=O)N[C@@H](CCCCN)C(N)=O)[C@@H](C)O)[C@@H](C)CC (HELM PEPTIDE1{[ac].E.E.V.I.K.L.S.G.R.E.L.V.R.A.Q.I.[C[C@@H](CN[*:1])C(=O)[*:2]].I.S.G.M.S.T.W.S.K.R.K.K.[am]}$$$$V2.0)
3 | 498 | 86 | CC[C@H](C)[C@H](NC(=O)[C@H](CCC(N)=O)NC(=O)[C@H](C)NC(=O)[C@H](CCCNC(=N)N)NC(=O)[C@@H](NC(=O)[C@H](CC(C)C)NC(=O)[C@H](CCC(=O)O)NC(=O)[C@H](CCCNC(=N)N)NC(=O)CNC(=O)[C@H](CO)NC(=O)[C@H](CC(C)C)NC(=O)[C@H](CCCCN)NC(=O)[C@@H](NC(=O)[C@@H](NC(=O)[C@H](CCC(=O)O)NC(=O)[C@H](CCC(=O)O)NC(C)=O)C(C)C)[C@@H](C)CC)C(C)C)C(=O)NC[C@H](C)C(=O)N[C@H](C(=O)N[C@@H](CO)C(=O)NCC(=O)N[C@@H](CCSC)C(=O)N[C@@H](CO)C(=O)N[C@H](C(=O)N[C@@H](Cc1c[nH]c2ccccc12)C(=O)N[C@@H](CO)C(=O)N[C@@H](CCCCN)C(=O)N[C@@H](CCCNC(=N)N)C(=O)N[C@@H](CO)C(=O)N[C@@H](CC(C)C)C(N)=O)[C@@H](C)O)[C@@H](C)CC (HELM PEPTIDE1{[ac].E.E.V.I.K.L.S.G.R.E.L.V.R.A.Q.I.[C[C@@H](CN[*:1])C(=O)[*:2]].I.S.G.M.S.T.W.S.K.R.S.L.[am]}$$$$V2.0)
4 | 37 | 94 | CC[C@H](C)[C@H](NC(=O)[C@H](CCC(N)=O)NC(=O)[C@H](C)NC(=O)[C@H](CCCNC(=N)N)NC(=O)[C@@H](NC(=O)[C@H](CC(C)C)NC(=O)[C@H](CCC(=O)O)NC(=O)[C@H](CCCNC(=N)N)NC(=O)CNC(=O)[C@H](CO)NC(=O)[C@H](CC(C)C)NC(=O)[C@H](CCCCN)NC(=O)[C@@H](NC(=O)[C@@H](NC(=O)[C@H](CCC(=O)O)NC(=O)[C@H](CCC(=O)O)NC(C)=O)C(C)C)[C@@H](C)CC)C(C)C)C(=O)NC[C@H](C)C(=O)NC[C@H](C)C(=O)N[C@@H](CO)C(=O)NCC(=O)N[C@@H](CCSC)C(=O)N[C@@H](CO)C(=O)N[C@H](C(=O)N[C@@H](Cc1c[nH]c2ccccc12)C(=O)N[C@@H](CO)C(=O)N[C@@H](CCCCN)C(=O)N[C@@H](CCCNC(=N)N)C(=O)N[C@@H](CCCCN)C(=O)N[C@@H](CCCCN)C(N)=O)[C@@H](C)O (HELM PEPTIDE1{[ac].E.E.V.I.K.L.S.G.R.E.L.V.R.A.Q.I.[C[C@@H](CN[*:1])C(=O)[*:2]].[C[C@@H](CN[*:1])C(=O)[*:2]].S.G.M.S.T.W.S.K.R.K.K.[am]}$$$$V2.0)
5 | 23 | 99 | CC[C@H](C)[C@H](NC(=O)[C@H](CCC(N)=O)NC(=O)[C@H](C)NC(=O)[C@H](CCCNC(=N)N)NC(=O)[C@@H](NC(=O)[C@H](CCCCN)NC(=O)[C@H](CCC(=O)O)NC(=O)[C@H](CCCNC(=N)N)NC(=O)CNC(=O)[C@H](CCC(=O)O)NC(=O)[C@H](CC(C)C)NC(C)=O)C(C)C)C(=O)NC[C@H](C)C(=O)NC[C@H](C)C(=O)N[C@@H](CCC(=O)O)C(=O)NCC(=O)N[C@@H](CCSC)C(=O)N[C@@H](CO)C(=O)N[C@H](C(=O)N[C@@H](Cc1c[nH]c2ccccc12)C(=O)N[C@@H](CO)C(=O)N[C@@H](CCCCN)C(=O)N[C@@H](CCCNC(=N)N)C(=O)N[C@@H](CCCCN)C(=O)N[C@@H](CCCCN)C(N)=O)[C@@H](C)O (HELM PEPTIDE1{[ac].L.E.G.R.E.K.V.R.A.Q.I.[C[C@@H](CN[*:1])C(=O)[*:2]].[C[C@@H](CN[*:1])C(=O)[*:2]].E.G.M.S.T.W.S.K.R.K.K.[am]}$$$$V2.0)
6 | 146 | 102 | CC[C@H](C)[C@H](NC(=O)[C@H](CCC(N)=O)NC(=O)[C@H](C)NC(=O)[C@H](CCCNC(=N)N)NC(=O)[C@@H](NC(=O)[C@@H](NC(=O)[C@H](CCC(=O)O)NC(=O)[C@H](CCCNC(=N)N)NC(=O)CNC(=O)[C@H](CCC(=O)O)NC(=O)[C@H](CC(C)C)NC(=O)[C@H](CCCCN)NC(=O)[C@@H](NC(=O)[C@@H](NC(C)=O)C(C)C)[C@@H](C)CC)[C@@H](C)CC)C(C)C)C(=O)NC[C@H](C)C(=O)N[C@H](C(=O)N[C@@H](CO)C(=O)NCC(=O)N[C@@H](CCSC)C(=O)N[C@@H](CO)C(=O)N[C@H](C(=O)N[C@@H](Cc1c[nH]c2ccccc12)C(=O)N[C@@H](CO)C(=O)N[C@@H](CCCCN)C(=O)N[C@@H](CCCNC(=N)N)C(=O)N[C@@H](CCCCN)C(=O)N[C@@H](CCCCN)C(N)=O)[C@@H](C)O)[C@@H](C)CC (HELM PEPTIDE1{[ac].V.I.K.L.E.G.R.E.I.V.R.A.Q.I.[C[C@@H](CN[*:1])C(=O)[*:2]].I.S.G.M.S.T.W.S.K.R.K.K.[am]}$$$$V2.0)
7 | 393 | 102 | CC[C@H](C)[C@H](NC(=O)[C@H](CCC(N)=O)NC(=O)[C@H](C)NC(=O)[C@H](CCCNC(=N)N)NC(=O)[C@@H](NC(=O)[C@H](CC(C)C)NC(=O)[C@H](CCC(=O)O)NC(=O)[C@H](CCCNC(=N)N)NC(=O)CNC(=O)[C@H](CO)NC(=O)[C@H](CC(C)C)NC(=O)[C@H](CCCCN)NC(=O)[C@@H](NC(=O)[C@@H](NC(C)=O)C(C)C)[C@@H](C)CC)C(C)C)C(=O)N[C@@H](C)C(=O)NC[C@H](C)C(=O)N[C@@H](CO)C(=O)NCC(=O)N[C@@H](CCSC)C(=O)N[C@@H](CO)C(=O)N[C@H](C(=O)N[C@@H](Cc1c[nH]c2ccccc12)C(=O)N[C@@H](CO)C(=O)N[C@@H](CCCCN)C(=O)N[C@@H](CCCNC(=N)N)C(=O)N[C@@H](CCCCN)C(=O)N[C@@H](CCCCN)C(N)=O)[C@@H](C)O (HELM PEPTIDE1{[ac].V.I.K.L.S.G.R.E.L.V.R.A.Q.I.A.[C[C@@H](CN[*:1])C(=O)[*:2]].S.G.M.S.T.W.S.K.R.K.K.[am]}$$$$V2.0)
8 | 46 | 98 | CC[C@H](C)[C@H](NC(=O)[C@H](CCC(N)=O)NC(=O)[C@H](C)NC(=O)[C@H](CCCNC(=N)N)NC(=O)[C@@H](NC(=O)[C@H](CC(C)C)NC(=O)[C@H](CCC(=O)O)NC(=O)[C@H](CCCNC(=N)N)NC(=O)CNC(=O)[C@H](CO)NC(=O)[C@H](CC(C)C)NC(=O)[C@H](CCCCN)NC(=O)[C@@H](NC(=O)[C@@H](NC(C)=O)C(C)C)[C@@H](C)CC)C(C)C)C(=O)NC[C@H](C)C(=O)N[C@H](C(=O)N[C@@H](CCC(=O)O)C(=O)NCC(=O)N[C@@H](CCSC)C(=O)N[C@@H](CO)C(=O)N[C@@H](CCCCN)C(=O)N[C@@H](Cc1c[nH]c2ccccc12)C(=O)N[C@@H](CO)C(=O)N[C@@H](CCCCN)C(=O)N[C@@H](CCCNC(=N)N)C(=O)N[C@@H](CCCCN)C(=O)N[C@@H](CCCCN)C(N)=O)[C@@H](C)CC (HELM PEPTIDE1{[ac].V.I.K.L.S.G.R.E.L.V.R.A.Q.I.[C[C@@H](CN[*:1])C(=O)[*:2]].I.E.G.M.S.K.W.S.K.R.K.K.[am]}$$$$V2.0)
